The assay deals with C666-1 cells. Description: C666-1 cell viability single concentration (50 μM) inhibition rate (Resazurin). The format is cell-based. As to conditions: 50 μM compound, 72 hours, C666-1 cells; for inhibition at 50 µM: Homo sapiens, C6661, 72 h, read-out: C666-1 cell viability single concentration (50 μM) inhibition rate, Ratio* (Inh %). The method, then: In order to assess the effect of the EBNA1 inhibitor at the cellular level, the cell proliferation inhibition rate was tested, and the inhibition rate of inhibitor at a specific concentration on the proliferation of Epstein-Barr virus positive cell line C666-1 was detected.
In the test, 100 μL C666-1 cells were inoculated in a transparent 96-well plate, and each well contained 5×10^3 cells. After the cells were cultured in an incubator with 5% carbon dioxide at 37° C. for 24 hours, 10 μL compound at a concentration of 500 μmol/L was added into the cells, so that the final concentration of the compound was 50 μmol/L. Two replicate wells were set for each compound, the wells treated with DMSO were set as control wells (Ctrl), and the wells with cell culture medium only were set as blank wells (blank), and they were treated in the incubator with carbon dioxide at 37° C. for 72 hours. The cell viability was assessed using a redox indicator Resazurin. Specifically, 10 μL Resazurin at a concentration of 600 umol/L was added into each well, and incubated at 37° C. for 3 hours, and a Tecan microplate reader was used to detect the fluorescence signal at an excitation wavelength of 560 nm and an emission wavelength of 590 nm. The formula inh %=1−(F−Fblank)/(FCtrl−Fblank)×100% (where, F is the fluorescence intensity of the compound-added wells, FCtrl and Fblank are the readings of the control wells and blank wells, respectively) was used to calculate the inhibition rate of the compound on the proliferation of C666-1 cells, so as to assess the activity of the compound on Epstein-Barr virus positive cells.
For orientation: The colour change of resazurin is a common sign of viable cells or microbes.

In the case of `CCCCCCCC(=O)OCc1ccc(OC2CN(c3cccc(C(=O)OC)c3-n3cccc3)C2)cc1` [Compound 75, Methyl 3-(3-(4-((octanoyloxy)methyl)phenoxy)azetidin-1-yl)-2-(1H-pyrrol-1-yl)benzoate], the inhibition at 50 µM was in the range of 10 to 30%.
On the same count and under the same terms, then `COC(=O)c1cccc(N2CC(Oc3ccc(CNC(C)=O)cc3)C2)c1-n1cccc1` [Compound 76, Methyl 3-(3-(4-(acetylaminomethyl)phenoxy)azetidin-1-yl)-2-(1H-pyrrol-1-yl)benzoate], with 10 to 30%; and `CC(=O)NCc1ccc(OC2CN(c3cccc(C(=O)O)c3-n3cccc3)C2)cc1` [Compound 77, 3-(3-(4-(acetylaminomethyl)phenoxy)azetidin-1-yl)-2-(1H-pyrrol-1-yl)benzoic acid], with under 10%.
On the same count and under the same terms, to `COC(=O)c1cccc(N2CC(Oc3ccc(CNS(=O)(=O)C4CC4)cc3)C2)c1-n1cccc1` [Compound 78, Methyl 3-(3-(4-(cyclopropylsulfonamidomethyl)phenoxy)azetidin-1-yl)-2-(1H-pyrrol-1-yl)benzoate] belongs over 50%.
The same measure, in the same setting: to `COC(=O)c1cccc(N2CC(Oc3cccc(OC)c3)C2)c1-n1cccc1` [Compound 79, Methyl 3-(3-(3-methoxyphenoxy)azetidin-1-yl)-2-(1H-pyrrol-1-yl)benzoate] belongs 10 to 30%; to `COc1cccc(OC2CN(c3cccc(C(=O)O)c3-n3cccc3)C2)c1` [Compound 80, 3-(3-(3-methoxyphenoxy)azetidin-1-yl)-2-(1H-pyrrol-1-yl)benzoic acid], under 10%; to `COC(=O)c1cccc(N2CC(Oc3ccc(C(F)(F)F)cc3)C2)c1-n1cccc1` [Compound 81, Methyl 2-(1H-pyrrol-1-yl)-3-(3-(4-(trifluoromethyl)phenoxy)azetidin-1-yl)benzoate], 10 to 30%.
As to `O=C(O)c1cccc(N2CC(Oc3ccc(C(F)(F)F)cc3)C2)c1-n1cccc1` [Compound 82, 2-(1H-pyrrol-1-yl)-3-(3-(4-(trifluoromethyl)phenoxy)azetidin 1-yl)benzoic acid], the inhibition at 50 µM is under 10%.
Still for that read-out and setting: then `COC(=O)c1cccc(N2CC(Oc3ccc(OC(F)(F)F)cc3)C2)c1-n1cccc1` [Compound 83, Methyl 2-(1H-pyrrol-1-yl)-3-(3-(4-(trifluoromethoxy)phenoxy)azetidin-1-yl)benzoate], with over 50%; and `O=C(O)c1cccc(N2CC(Oc3ccc(OC(F)(F)F)cc3)C2)c1-n1cccc1` [Compound 84, 2-(1H-pyrrol-1-yl)-3-(3-(4-(trifluoromethoxy)phenoxy)azetidin-1-yl)benzoic acid], with under 10%; and `COC(=O)c1cccc(N2CC(Oc3ccc(Cl)nc3)C2)c1-n1cccc1` [Compound 85, Methyl 3-(3-((6-chloropyridin-3-yl)oxy)azetidin-1-yl)-2-(1H-pyrrol-1-yl)benzoate], with over 50%.
The same measure, in the same setting: to `O=C(O)c1cccc(N2CC(Oc3ccc(Cl)nc3)C2)c1-n1cccc1` [Compound 86, 3-(3-((6-chloropyridin-3-yl)oxy)azetidin-1-yl)-2-(1H-pyrrol-1-yl)benzoic acid] belongs under 10%.
Still for that read-out and setting: to `COC(=O)c1cccc(N2CC(Oc3ccc(C(C)=O)cc3)C2)c1-n1cccc1` [Compound 87, Methyl 3-(3-(4-acetylphenoxy)azetidin-1-yl)-2-(1H-pyrrol-1-yl)benzoate] belongs over 50%.
Take `CC(=O)c1ccc(OC2CN(c3cccc(C(=O)O)c3-n3cccc3)C2)cc1` [Compound 88, 3-(3-(4-acetylphenoxy)azetidin-1-yl)-2-(1H-pyrrol-1-yl)benzoic acid]: the inhibition at 50 µM is under 10%.
Same read-out and setting: to `COC(=O)c1cccc(N2CC(Oc3ccc(C(C)O)cc3)C2)c1-n1cccc1` (stereo not drawn) [Compound 89, Methyl 3-(3-(4-(1-hydroxyethyl)phenoxy)azetidin-1-yl)-2-(1H-pyrrol-1-yl)benzoate] belongs over 50%.
On the same count and under the same terms, to `CC(O)c1ccc(OC2CN(c3cccc(C(=O)O)c3-n3cccc3)C2)cc1` (stereo not drawn) [Compound 90, 3-(3-(4-(1-hydroxyethyl)phenoxy)azetidin-1-yl)-2-(1H-pyrrol-1-yl)benzoic acid] belongs under 10%; to `COC(=O)c1cccc(N2CC(Oc3cc(Cl)nc(Cl)c3)C2)c1-n1cccc1` [Compound 91, Methyl 3-(3-((2,6-dichloropyridin-4-yl)oxy)azetidin-1-yl)-2-(1H-pyrrol-1-yl)benzoate], under 10%; to `O=C(O)c1cccc(N2CC(Oc3cc(Cl)nc(Cl)c3)C2)c1-n1cccc1` [Compound 92, 3-(3-((2,6-dichloropyridin-4-yl)oxy)azetidin-1-yl)-2-(1H-pyrrol-1-yl)benzoic acid], under 10%.
Regarding `COC(=O)c1cccc(N2CC(Oc3ccc(C#N)cc3)C2)c1-n1cccc1` [Compound 93, Methyl 3-(3-(4-cyanophenoxy)azetidin-1-yl)-2-(1H-pyrrol-1-yl)benzoate], the inhibition at 50 µM fell in the range of 30 to 50%.
The same measure, in the same setting: then `N#Cc1ccc(OC2CN(c3cccc(C(=O)O)c3-n3cccc3)C2)cc1` [Compound 94, 3-(3-(4-cyanophenoxy)azetidin-1-yl)-2-(1H-pyrrol-1-yl)benzoic acid], with under 10%; and `COC(=O)c1cccc(N2CC(Oc3ccc(Cl)cc3)C2)c1-n1cccc1` [Compound 95, Methyl 3-(3-(4-chlorophenoxy)azetidin-1-yl)-2-(1H-pyrrol-1-yl)benzoate], with under 10%; and `O=C(O)c1cccc(N2CC(Oc3ccc(Cl)cc3)C2)c1-n1cccc1` [Compound 96, 3-(3-(4-chlorophenoxy)azetidin-1-yl)-2-(1H-pyrrol-1-yl)benzoic acid], with under 10%.
On the same count and under the same terms, then `COC(=O)c1cccc(N2CC(Oc3ccc(N(C)C)cc3)C2)c1-n1cccc1` [Example 97, Methyl 3-(3-(4-(dimethylamino)phenoxy)azetidin-1-yl)-2-(1H-pyrrol-1-yl)benzoate], with 10 to 30%; and `CN(C)c1ccc(OC2CN(c3cccc(C(=O)O)c3-n3cccc3)C2)cc1` [Example 98, 3-(3-(4-(dimethylamino)phenoxy)azetidin-1-yl)-2-(1H-pyrrol-1-yl)benzoic acid], with 10 to 30%; and `CCOc1ccc(OC2CN(c3cccc(C(=O)OC)c3-n3cccc3)C2)cc1` [Example 99, Methyl 3-(3-(4-ethoxyphenoxy)azetidin-1-yl)-2-(1H-pyrrol-1-yl)benzoate], with under 10%.
Still for that read-out and setting: then `CCOc1ccc(OC2CN(c3cccc(C(=O)O)c3-n3cccc3)C2)cc1` [Example 100, 3-(3-(4-ethoxyphenoxy)azetidin-1-yl)-2-(1H-pyrrol-1-yl)benzoic acid], with under 10%.
Take `COC(=O)c1cccc(N2CC(Oc3ccccc3)C2)c1-n1cccc1` [Example 101, Methyl 3-(3-phenoxyazetidin-1-yl)-2-(1H-pyrrol-1-yl)benzoate]: the “C666-1 cell viability single concentration (50 μM) inhibition rate, Ratio* (Inh %)” value is reported as “+++ (30%-50% +++)”.
Consider `O=C(O)c1cccc(N2CC(Oc3ccccc3)C2)c1-n1cccc1` [Example 102, 3-(3-phenoxyazetidin-1-yl)-2-(1H-pyrrol-1-yl)benzoic acid], for which the inhibition at 50 µM was under 10%.
The same measure, in the same setting: then `COC(=O)c1cccc(N2CC(Oc3ccc4cc[nH]c4c3)C2)c1-n1cccc1` [Example 103, Methyl 3-(3-((1H-indol-6-yl)oxy)azetidin-1-yl)-2-(1H-pyrrol-1-yl)benzoate], with 10 to 30%; and `O=C(O)c1cccc(N2CC(Oc3ccc4cc[nH]c4c3)C2)c1-n1cccc1` [Example 104, 3-(3-((1H-indol-6-yl)oxy)azetidin-1-yl)-2-(1H-pyrrol-1-yl)benzoic acid], with under 10%; and `CCCOc1ccc(OC2CN(c3cccc(C(=O)OC)c3-n3cccc3)C2)cc1` [Example 105, Methyl 3-(3-(4-propoxyphenoxy)azetidin-1-yl)-2-(1H-pyrrol-1-yl)benzoate], with under 10%.
As to `CCCOc1ccc(OC2CN(c3cccc(C(=O)O)c3-n3cccc3)C2)cc1` [Example 106, 3-(3-(4-propoxyphenoxy)azetidin-1-yl)-2-(1H-pyrrol-1-yl)benzoic acid], the inhibition at 50 µM was under 10%.
On the same count and under the same terms, then `CCCCOc1ccc(OC2CN(c3cccc(C(=O)OC)c3-n3cccc3)C2)cc1` [Example 107, Methyl 3-(3-(4-butoxyphenoxy)azetidin-1-yl)-2-(1H-pyrrol-1-yl)benzoate], with under 10%.
The same measure, in the same setting: then `CCCCOc1ccc(OC2CN(c3cccc(C(=O)O)c3-n3cccc3)C2)cc1` [Example 108, 3-(3-(4-butoxyphenoxy)azetidin-1-yl)-2-(1H-pyrrol-1-yl)benzoic acid], with under 10%; and `COC(=O)c1cccc(N2CC(Oc3ccc(OC(C)C)cc3)C2)c1-n1cccc1` [Example 109, Methyl 3-(3-(4-isopropoxyphenoxy)azetidin-1-yl)-2-(1H-pyrrol-1-yl)benzoate], with under 10%; and `CC(C)Oc1ccc(OC2CN(c3cccc(C(=O)O)c3-n3cccc3)C2)cc1` [Example 110, 3-(3-(4-isopropoxyphenoxy)azetidin-1-yl)-2-(1H-pyrrol-1-yl)benzoic acid], with under 10%.

Values taken from US20230157996A1, “SMALL-MOLECULE INHIBITOR TARGETING EB VIRUS NUCLEAR ANTIGEN PROTEIN, PREPARATION METHOD AND USE THEREOF” (priority 2020, published 2023).
